Here are results for 28 compounds from patent US11820766B2, “Monoacylglycerol lipase modulators” (Janssen Pharmaceutica NV, priority 2018, dated 2023).

Where a name gives a salt, the structure may show the parent alone.

One experiment has as its target T1, human MGL from HeLa cells (Homo sapiens, UniProt Q99685).
T1 construct: combining endogenously expressed MGL from HeLa cells with test compounds; endogenous in cells; host or cells: HeLa cells / cell homogenates
T1 sequence (Q99685 1-303): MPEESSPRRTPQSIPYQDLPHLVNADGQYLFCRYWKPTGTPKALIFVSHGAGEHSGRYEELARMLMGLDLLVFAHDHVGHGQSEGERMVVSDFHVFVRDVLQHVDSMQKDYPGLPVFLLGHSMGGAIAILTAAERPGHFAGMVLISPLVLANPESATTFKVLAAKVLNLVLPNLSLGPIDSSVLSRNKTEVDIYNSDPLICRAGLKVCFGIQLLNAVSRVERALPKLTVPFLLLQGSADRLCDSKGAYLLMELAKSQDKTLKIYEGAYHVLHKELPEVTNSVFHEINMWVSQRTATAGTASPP
The experiment can be described thus: In vitro MGL activity assay: [glycerol-1,3-3H]-oleyl glycerol cleavage by MGL from HeLa cells. Particulars: 300 nM [Glycerol-1,3-3H]-oleyl glycerol, one hour. It counts as biochemical. The source says:
MGL is the predominant hydrolase in HeLa cells/cell homogenates.
A word on the IC50: it is the concentration that gives 50% inhibition. Low readings indicate greater potency, high ones weaker potency. As to `Cc1ccn2cnc(C(=O)N3CCc4c(nn(C)c4-c4cc(F)c(F)c(F)c4)[C@@H]3C)c2c1` [Example 419, [(7S)-2,7-Dimethyl-3-(3,4,5-trifluorophenyl)-5,7-dihydro-4H-pyrazolo[3,4-c]pyridin-6-yl]-(7-methylimidazo[1,5-a]pyridin-1-yl)methanone], the IC50 was found to be 192 nM. In other words, the sub-micromolar range.

With `C[C@H]1c2nn(C)c(-c3cc(F)c(F)c(F)c3)c2CCN1C(=O)c1cnc2c(c1)OCCN2` [Example 571, 3,4-Dihydro-2H-pyrido[3,2-b][1,4]oxazin-7-yl-[(7S)-2,7-dimethyl-3-(3,4,5-trifluorophenyl)-5,7-dihydro-4H-pyrazolo[3,4-c]pyridin-6-yl]methanone], the IC50 amounted to 12.7 nM. This IC50 is about 15-fold lower than that of the compound before.

For `C[C@H]1c2nn(C)c(-c3cc(F)c(F)c(F)c3)c2CCN1C(=O)c1cnn(C2CC2)c1C(F)(F)F` [Example 346, [1-Cyclopropyl-5-(trifluoromethyl)pyrazol-4-yl]-[(7S)-2,7-dimethyl-3-(3,4,5-trifluorophenyl)-5,7-dihydro-4H-pyrazolo[3,4-c]pyridin-6-yl]methanone], half-maximal inhibition (IC50) was put at 22.4 nM.

In the case of `C[C@H]1c2nn(C)c(-c3cc(F)c(F)c(F)c3)c2CCN1C(=O)c1cnn(C)c1C1(C)CC1` [Example 334, [(7S)-2,7-Dimethyl-3-(3,4,5-trifluorophenyl)-5,7-dihydro-4H-pyrazolo[3,4-c]pyridin-6-yl]-[1-methyl-5-(1-methylcyclopropyl)pyrazol-4-yl]methanone], the IC50 was determined as 2790 nM.

For `C[C@H]1c2nn(C)c(-c3cc(F)c(F)c(F)c3)c2CCN1C(=O)c1cncc2c(F)cccc12` [Example 546, [(7S)-2,7-Dimethyl-3-(3,4,5-trifluorophenyl)-5,7-dihydro-4H-pyrazolo[3,4-c]pyridin-6-yl]-(8-fluoro-4-isoquinolyl)methanone], the IC50 worked out at 5.06 nM.

Turning to `C[C@H]1c2nn(C)c(-c3cc(F)c(F)c(F)c3)c2CCN1C(=O)c1cccc2c1OCC(=O)N2C` [Example 591, [(7S)-2,7-8-[(7S)-2,7-Dimethyl-3-(3,4,5-trifluorophenyl)-5,7-dihydro-4H-pyrazolo[3,4-c]pyridine-6-carbonyl]-4-methyl-1,4-benzoxazin-3-one.TFA salt], it took 4.18 nM to reach half-maximal inhibition (IC50).

Compound `C[C@H]1c2nn(C)c(-c3cc(F)c(F)c(F)c3)c2CCN1C(=O)c1cccc2nncn12` [Example 438, [(7S)-2,7-Dimethyl-3-(3,4,5-trifluorophenyl)-5,7-dihydro-4H-pyrazolo[3,4-c]pyridin-6-yl]-([1,2,4]triazolo[4,3-a]pyridin-5-yl)methanone] yielded an IC50 of 513 nM.

Compound `C[C@H]1c2nn(C)c(-c3csc(C(F)(F)F)c3)c2CCN1C(=O)c1ccc2ncccc2c1` [Example 524, [(7S)-2,7-Dimethyl-3-[5-(trifluoromethyl)-3-thienyl]-5,7-dihydro-4H-pyrazolo[3,4-c]pyridin-6-yl]-(6-quinolyl)methanone] displayed an IC50 of 7.23 nM. Against the preceding compound, the IC50 is about 71-fold lower.

In the case of `COc1ccccc1-c1c2c(nn1C)[C@H](C)N(C(=O)c1ccc3ncccc3c1)CC2` [Example 496, [(7S)-3-(2-Methoxyphenyl)-2,7-dimethyl-5,7-dihydro-4H-pyrazolo[3,4-c]pyridin-6-yl]-(6-quinolyl)methanone], the IC50 stood at 54.4 nM.

For `C[C@H]1c2nn(C)c(-c3cc(F)c(F)c(F)c3)c2CCN1C(=O)c1cnc2cc(F)ccn12` [Example 393, [(7S)-2,7-Dimethyl-3-(3,4,5-trifluorophenyl)-5,7-dihydro-4H-pyrazolo[3,4-c]pyridin-6-yl]-(7-fluoroimidazo[1,2-a]pyridin-3-yl)methanone], the IC50 is 252 nM. Compared with the last compound, the IC50 is about 4.6-fold higher.

The compound `Cc1nc2c(F)cc(F)cn2c1C(=O)N1CCc2c(nn(C)c2-c2cc(F)c(F)c(F)c2)[C@@H]1C` [Example 410, (6,8-Difluoro-2-methyl-imidazo[1,2-a]pyridin-3-yl)-[(7S)-2,7-dimethyl-3-(3,4,5-trifluorophenyl)-5,7-dihydro-4H-pyrazolo[3,4-c]pyridin-6-yl]methanone] yielded an IC50 of 173 nM. This IC50 and that of the compound before are within 1.5-fold of each other.

Still in this experiment, the particulars now being: 300 nM [Glycerol-1,3-3H]-oleyl glycerol, one hour incubation.
With `C[C@H]1c2nn(C)c(-c3cccc(Cl)c3)c2CCN1C(=O)c1cccc2c1OCO2` [Example 123, (S)-Benzo[d][1,3]dioxol-4-yl(3-(3-chlorophenyl)-2,7-dimethyl-2,4,5,7-tetrahydro-6H-pyrazolo[3,4-c]pyridin-6-yl)methanone], the IC50 was 45.1 nM.

`C[C@H]1c2nn(C)c(-c3cccc(Cl)c3)c2CCN1C(=O)c1ccc2ncccc2n1` [Example 131, (S)-(3-(3-Chlorophenyl)-2,7-dimethyl-2,4,5,7-tetrahydro-6H-pyrazolo[3,4-c]pyridin-6-yl)(1,5-naphthyridin-2-yl)methanone] registered an IC50 of 46.2 nM.

In the case of `Cn1nc2c(c1-c1ccccc1)CCN(C(=O)c1cnc3ccccc3c1)C2` [Example 95, (2-Methyl-3-phenyl-2,4,5,7-tetrahydro-6H-pyrazolo[3,4-c]pyridin-6-yl)(quinolin-3-yl)methanone], the IC50 came to 984 nM.

On to `Cn1nc2c(c1-c1ccccc1)CCN(C(=O)c1cccc3cncn13)C2` [Example 79, Imidazo[1,5-a]pyridin-5-yl(2-methyl-3-phenyl-2,4,5,7-tetrahydro-6H-pyrazolo[3,4-c]pyridin-6-yl)methanone], for which the IC50 was determined as 1190 nM.

`COc1ccc(C(=O)N2CCc3c(nn(C)c3-c3cc(F)c(F)c(F)c3)[C@@H]2C)cc1-c1ccn(C)n1` [Example 271, [(7S)-2,7-Dimethyl-3-(3,4,5-trifluorophenyl)-5,7-dihydro-4H-pyrazolo[3,4-c]pyridin-6-yl]-[4-methoxy-3-(1-methylpyrazol-3-yl)phenyl]methanone] showed an IC50 of 182 nM.

On to `C[C@H]1c2nn(C)c(-c3cc(F)c(F)c(F)c3)c2CCN1C(=O)c1c(F)cccc1-n1nccn1` [Example 288, [(7S)-2,7-Dimethyl-3-(3,4,5-trifluorophenyl)-5,7-dihydro-4H-pyrazolo[3,4-c]pyridin-6-yl]-[2-fluoro-6-(triazol-2-yl)phenyl]methanone], for which the 50% inhibitory concentration (IC50) stood at 59.8 nM.

`C[C@H]1c2nn(C)c(-c3cc(F)c(F)c(F)c3)c2CCN1C(=O)c1ccc(OC(F)F)cc1` [Example 264, [4-(Difluoromethoxy)phenyl]-[(7S)-2,7-dimethyl-3-(3,4,5-trifluorophenyl)-5,7-dihydro-4H-pyrazolo[3,4-c]pyridin-6-yl]methanone] showed an IC50 of 213 nM. This IC50 lies about 3.6-fold higher than the previous one.

Turning to `C[C@H]1c2nn(C)c(-c3cccc(Cl)c3)c2CCN1C(=O)c1cc(Cl)cc(OC(F)(F)F)c1` [Example 116, (S)-(3-Chloro-5-(trifluoromethoxy)phenyl)(3-(3-chlorophenyl)-2,7-dimethyl-2,4,5,7-tetrahydro-6H-pyrazolo[3,4-c]pyridin-6-yl)methanone], the IC50 is 199 nM. This IC50 and that of the compound before are within 1.5-fold of each other.

Consider `C[C@H]1c2nn(C)c(-c3cc(F)c(F)c(F)c3)c2CCN1C(=O)c1cccc(-n2cncn2)c1` [Example 194, (S)-(3-(1H-1,2,4-Triazol-1-yl)phenyl)(2,7-dimethyl-3-(3,4,5-trifluorophenyl)-2,4,5,7-tetrahydro-6H-pyrazolo[3,4-c]pyridin-6-yl)methanone], for which the IC50 was determined as 14.8 nM.

For `Cn1nc2c(c1-c1ccccc1)CCN(C(=O)c1c[nH]c3cccc(Cl)c13)C2` [Example 49, (4-Chloro-1H-indol-3-yl)(2-methyl-3-phenyl-2,4,5,7-tetrahydro-6H-pyrazolo[3,4-c]pyridin-6-yl)methanone], 461 nM corresponded to half-maximal inhibition (IC50).

With `CC1c2nn(C)c(-c3cc(F)cc(Cl)c3)c2CCN1C(=O)c1ccc2nccnc2c1` (stereo not shown) [Example 180, (3-(3-Chloro-5-fluorophenyl)-2,7-dimethyl-2,4,5,7-tetrahydro-6H-pyrazolo[3,4-c]pyridin-6-yl)(quinoxalin-6-yl)methanone], the midpoint of inhibition, the IC50, lay at 31.3 nM.

`Cc1cnc2cc(C(=O)N3CCc4c(nn(C)c4-c4cc(Cl)cc(Cl)c4)[C@@H]3C)ccc2n1` [Example 176, (S)-(3-(3,5-Dichlorophenyl)-2,7-dimethyl-2,4,5,7-tetrahydro-6H-pyrazolo[3,4-c]pyridin-6-yl)(2-methylquinoxalin-6-yl)methanone] showed an IC50 of 8.49 nM. Compared with the last compound, the IC50 is about 3.7-fold lower.

Take `C[C@H]1c2nn(C)c(-c3cc(Cl)cc(Cl)c3)c2CCN1C(=O)c1ccc2nccnc2c1` [Example 175, (S)-(3-(3,5-Dichlorophenyl)-2,7-dimethyl-2,4,5,7-tetrahydro-6H-pyrazolo[3,4-c]pyridin-6-yl)(quinoxalin-6-yl)methanone]: the IC50 was 6.24 nM.

The compound `C[C@H]1c2nn(C)c(-c3cccc(Cl)c3)c2CCN1C(=O)c1ccc2cc[nH]c2n1` [Example 130, (S)-(3-(3-Chlorophenyl)-2,7-dimethyl-2,4,5,7-tetrahydro-6H-pyrazolo[3,4-c]pyridin-6-yl)(1H-pyrrolo[2,3-b]pyridin-6-yl)methanone] came in with an IC50 of 274 nM.

Compound `Cn1ncc(C(=O)N2CCc3c(nn(C)c3-c3ccccc3)C2)c1Cl` [Example 20, (5-Chloro-1-methyl-1H-pyrazol-4-yl)(2-methyl-3-phenyl-2,4,5,7-tetrahydro-6H-pyrazolo[3,4-c]pyridin-6-yl)methanone] displayed an IC50 of 2090 nM. This IC50 is about 7.6-fold higher than that of the compound before.

Turning to `Cn1nc2c(c1-c1ccccc1)CCN(C(=O)c1ccc3ncoc3c1)C2` [Example 56, Benzo[d]oxazol-6-yl(2-methyl-3-phenyl-2,4,5,7-tetrahydro-6H-pyrazolo[3,4-c]pyridin-6-yl)methanone], half-maximal inhibition (IC50) was put at 293 nM.

With `C[C@H]1c2nn(C)c(-c3cc(F)c(F)c(F)c3)c2CCN1C(=O)c1cc(-n2cnnc2)cc(C(F)(F)F)c1` [Example 296, [(7S)-2,7-Dimethyl-3-(3,4,5-trifluorophenyl)-5,7-dihydro-4H-pyrazolo[3,4-c]pyridin-6-yl]-[3-(1,2,4-triazol-4-yl)-5-(trifluoromethyl)phenyl]methanone], 608 nM corresponded to half-maximal inhibition (IC50).
